Data on ten molecules can be found in patent US20030073850A1, “4-Imidazole derivatives of benzyl and restricted benzyl sulfonamides, sulfamides, ureas, carbamates, and amides and their use” (priority 1998, published 2003).

Series [1] concerns anesthetized dogs. Description: Intraurethral pressure (IUP) in anesthetized dogs. The following applies: for ED (5 mm Hg): Canis lupus familiaris, iv dose causing a maximum increase in IUP of 5 mm Hg, anesthetized female Beagle dogs, read-out: Mean IUP ED5; for Mean Selectivity Ratio MAP ED20/IUP ED5: anesthetized dogs, iv. The series is classed as in vivo, dog. From the text:
(§1) Female Beagle dogs (Marshall Farms, North Rose, N.Y.) greater that 2 years of age and weighing between 12 and 15 kg were used in these studies. At least 2 weeks prior to any agonist dosing, dogs were instrumented for the chronic measurement of arterial blood pressure by implanting a telemetry transducer/transmitter (TA11PA-C40, Data Sciences International, St. Paul, Minn.) into a carotid artery.
(§2) On the test day, dogs fasted since the previous afternoon were pre-anesthetized with thiopental sodium 15 mg/kg i.v. (Pentothal™, Abbott) and intubated. Anesthesia was maintained by allowing the dog to spontaneously breathe a mixture of isoflurane (2.5 to 3 volume %) and oxygen delivered by a Narkomed Standard anesthesia system (North American Drager, Telford, Pa.). An Abbocath-T™ i.v. catheter (18-G, Abbott) was inserted into the cephalic vein for the administration of agonists. A telemetry receiver (RA1310, DataSciences) was placed under the head of each dog and was interfaced to a computerized data acquisition system (Modular Instruments Inc.(MI2), Malvern, Pa.) which allowed for the continuous calibrated recording of arterial blood pressure which was electronically filtered to determine its mean value (MAP).
Dogs with chronic telemetry implants anesthetized as described above were placed in dorsal recumbency and a balloon catheter was inserted into the urethral orifice and advanced approximately 15 cm until the tip was well inside the bladder. The balloon was then inflated with 1 ml of room air and the catheter slowly withdrawn until resistance (corresponding to the bladder neck) was evident. The balloon was then deflated and the catheter withdrawn additional 2 cm. The balloon was then reinflated and its catheter port connected to a Gould Statham P23Dd pressure transducer interfaced to a computerized data acquisition system (Modular Instruments, Inc., Malvern, Pa.) for the measurement of the intraurethral pressure. Increasing iv doses of test agonists were administered and the maximum effect of each dose on IUP was recorded. The effect of each dose was allowed to return to baseline before the next dose was given.
(§3) From the resulting dose response curve, an ED5 value, for the dose causing a maximum increase in IUP of 5 mm Hg, could be estimated. An ED20 value for the dose causing a maximum increase in MAP of 20 mm Hg could also be estimated. A selectivity ratio of MAP ED20 vs. IUP ED, was calculated.

The target of series [2] is T1, α1b (hamster receptor expressed in mouse fibroblasts) (Mesocricetus auratus, UniProt P18841).
T1 construct: expressed in transfected cells; host or cells: mouse fibroblasts
T1 sequence (P18841 1-515): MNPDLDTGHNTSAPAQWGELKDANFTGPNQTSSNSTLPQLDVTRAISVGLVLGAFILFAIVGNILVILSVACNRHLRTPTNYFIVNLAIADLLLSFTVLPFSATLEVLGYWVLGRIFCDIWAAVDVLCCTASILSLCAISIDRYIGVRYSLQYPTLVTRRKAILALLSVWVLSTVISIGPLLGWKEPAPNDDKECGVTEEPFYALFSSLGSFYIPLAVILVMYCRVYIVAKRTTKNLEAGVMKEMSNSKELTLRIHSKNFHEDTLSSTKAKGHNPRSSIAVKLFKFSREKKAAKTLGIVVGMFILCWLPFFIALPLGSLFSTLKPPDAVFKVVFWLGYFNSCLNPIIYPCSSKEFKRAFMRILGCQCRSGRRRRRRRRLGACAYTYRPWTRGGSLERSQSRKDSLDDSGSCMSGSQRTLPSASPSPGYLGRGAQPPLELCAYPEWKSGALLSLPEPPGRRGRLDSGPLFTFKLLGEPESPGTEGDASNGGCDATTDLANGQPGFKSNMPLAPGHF
The series can be described thus: Radioligand binding, [3H]-prazosin, α1b. A digest of the protocol: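 [3H]-prazosin radioligand displacement; α1A from rat submaxillary gland tissue, α1b hamster and α1d rat receptors each expressed in mouse fibroblasts.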

Series [3] relates to anesthetized dogs. Description: Mean arterial pressure (MAP) in anesthetized dogs. The series is classed as in vivo, dog. To be noted: iv dose causing a maximum increase in MAP of 20 mm Hg, anesthetized female Beagle dogs.
Text: as §1, §2, §3

For series [4], the target named is T2, α1A (rabbit urethra) (Oryctolagus cuniculus, UniProt O02824).
T2 construct: tested for α1A functional activity using rabbit urethra; from tissue; host or cells: rabbit urethra (female New Zealand white rabbits)
T2 sequence (O02824 1-466): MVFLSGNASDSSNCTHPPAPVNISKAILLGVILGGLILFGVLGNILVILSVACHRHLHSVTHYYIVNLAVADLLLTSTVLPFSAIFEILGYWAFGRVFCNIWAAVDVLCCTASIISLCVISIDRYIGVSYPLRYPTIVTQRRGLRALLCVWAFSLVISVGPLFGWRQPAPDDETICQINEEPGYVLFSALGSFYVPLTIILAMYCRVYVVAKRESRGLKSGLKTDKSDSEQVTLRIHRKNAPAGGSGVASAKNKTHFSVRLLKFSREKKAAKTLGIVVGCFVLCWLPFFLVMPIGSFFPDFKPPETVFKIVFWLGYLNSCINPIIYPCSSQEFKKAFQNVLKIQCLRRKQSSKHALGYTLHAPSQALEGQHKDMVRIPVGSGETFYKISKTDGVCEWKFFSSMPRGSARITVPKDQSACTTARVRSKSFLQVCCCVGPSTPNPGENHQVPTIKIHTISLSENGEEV
The series can be described thus: Agonist tissue response, contraction of rabbit urethra. The following applies: values without asterisk, read-out: Agonist Tissue Response (pD2) α1A (rab ureth) (converted). The class given is biochemical. As to the method:
Most of the compounds were tested for α1A functional activity using rabbit urethra as follows. Female New Zealand white rabbits (2.0-3.5 Kg) were sedated with CO2 and decapitated. […] Subsequent experimental conditions were as described above for the other tissues. Agonist concentration response curves were cumulative except for the vas deferens assay in which the transient response made such measurements impractical.

Series [5] has as its target T3, α1d (rat receptor expressed in mouse fibroblasts) (Rattus norvegicus, UniProt P23944).
T3 construct: expressed in transfected cells; host or cells: mouse fibroblasts
T3 sequence (P23944 1-561): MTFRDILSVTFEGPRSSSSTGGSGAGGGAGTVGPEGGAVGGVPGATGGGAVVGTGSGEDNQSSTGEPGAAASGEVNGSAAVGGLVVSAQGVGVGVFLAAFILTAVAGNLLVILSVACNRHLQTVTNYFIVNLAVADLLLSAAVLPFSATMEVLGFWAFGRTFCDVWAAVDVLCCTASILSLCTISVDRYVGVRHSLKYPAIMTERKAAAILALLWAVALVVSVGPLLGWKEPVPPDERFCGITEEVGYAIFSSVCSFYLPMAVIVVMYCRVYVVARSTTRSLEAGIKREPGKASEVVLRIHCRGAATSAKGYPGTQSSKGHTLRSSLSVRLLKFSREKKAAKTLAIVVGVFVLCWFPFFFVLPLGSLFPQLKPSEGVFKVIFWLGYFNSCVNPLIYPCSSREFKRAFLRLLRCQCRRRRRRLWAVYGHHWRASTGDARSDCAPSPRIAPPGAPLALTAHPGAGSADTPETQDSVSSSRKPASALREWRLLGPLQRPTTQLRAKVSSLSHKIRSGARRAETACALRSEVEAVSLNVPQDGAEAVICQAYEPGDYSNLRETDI
Description: Radioligand binding, [3H]-prazosin, α1d. On the procedure: (§4) For purposes of discussing a, adrenoceptor subtypes, the IUPHAR convention of using lower case letters to define molecular clones and upper case letters to indicate pharmacologically defined adrenoceptors has been followed. Compounds of formula I were evaluated in radioligand binding assays specific for α1A (rat submaxillary gland), α1b (hamster receptor expressed in mouse fibroblasts) and α1d (rat receptor expressed in mouse fibroblasts) using [^3H]-prazosin as the radioligand as described in Knepper, et al. J. Pharm.

Series [6] deals with T4, α1A (rat submaxillary gland) (Rattus norvegicus, UniProt P43140).
T4 construct: α1A (rat submaxillary gland); from tissue; host or cells: rat submaxillary gland
T4 sequence (P43140 1-466): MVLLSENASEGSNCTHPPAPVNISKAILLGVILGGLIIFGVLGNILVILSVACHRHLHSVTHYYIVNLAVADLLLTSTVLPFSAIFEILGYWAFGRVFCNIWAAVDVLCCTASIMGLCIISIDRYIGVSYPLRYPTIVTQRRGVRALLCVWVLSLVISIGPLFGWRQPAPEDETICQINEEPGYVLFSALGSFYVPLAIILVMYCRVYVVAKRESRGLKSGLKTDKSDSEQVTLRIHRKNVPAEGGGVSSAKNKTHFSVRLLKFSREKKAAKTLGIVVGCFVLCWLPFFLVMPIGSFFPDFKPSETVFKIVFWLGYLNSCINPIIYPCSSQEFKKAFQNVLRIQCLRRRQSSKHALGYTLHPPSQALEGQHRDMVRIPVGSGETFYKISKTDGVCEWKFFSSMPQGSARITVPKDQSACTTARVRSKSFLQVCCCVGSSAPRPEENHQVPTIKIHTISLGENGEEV
The series can be described thus: Radioligand binding, [3H]-prazosin, α1A. As to the method:
as §4

[7] abbreviates: hamster receptor expressed in mouse fibroblasts, [3H]-prazosin, read-out: Radioligand Binding Ki α1b (Hamster).
Setting [8] is: rat receptor expressed in mouse fibroblasts, [3H]-prazosin, read-out: Radioligand Binding Ki α1d (Rat).

Read-outs that look alike come from different tables or passages of the source.

Broadly, the melting point is the temperature of the solid-liquid transition. The term Ki denotes a dissociation constant, usually derived from enzyme kinetics or from competition with a known ligand.

`CS(=O)(=O)Nc1ccc(F)c2c1CCCC2c1c[nH]cn1.O=C(O)/C=C\C(=O)O` (stereo not drawn) [Example 44, N-[4-fluoro-5-(1H-imidazol-4-yl)-5,6,7,8-tetrahydro-1-naphthalenyl]methanesulfonamide, Maleate] came in with a melting point of 182 to 186 °C. In addition, the ED (5 mm Hg) in series [1] stood at 0.892 µmol/kg. Besides, the Ki in series [2] (setting [7]) stood at 10 µM. The “Mean MAP ED20” value in series [3] turned out to be 588 nmol/kg.

For `O=S(=O)(Cc1ccccc1)Nc1cccc2c1CCCC2c1cnc[nH]1` (stereo not drawn) [Example 67, N-[5-(1H-imidazol-5-yl)-5,6,7,8-tetrahydro-1-naphthalenyl](phenyl)methanesulfonamide], the Ki in series [2] (setting [7]) is 2.39 µM; in series [5] (setting [8]), 3.74 µM; in series [6], 0.901 µM. In series [4], the EC50 was 107 µM.

`O=S(=O)(C=Cc1ccccc1)Nc1cccc2c1CCCC2c1cnc[nH]1` (stereo not drawn) [Example 70, N-[5-(1H-imidazol-5-yl)-5,6,7,8-tetrahydro-1-naphthalenyl]-2-phenyl-1-ethenesulfonamide]: the results for the Ki in series [2] (setting [7]), in series [5] (setting [8]) and in series [6] were 0.387 µM, 0.353 µM and 0.43 µM, respectively. Besides, the EC50 in series [4] was 81.3 µM.

Turning to `CCS(=O)(=O)Nc1cc(F)cc2c1OCCC2c1c[nH]cn1.O=C(O)/C=C\C(=O)O` (stereo not drawn) [Example 80, N-[6-fluoro-4-(1H-imidazol-4-yl)-3,4-dihydro-2H-chromen-8-yl]ethanesulfonamide, Maleate], in series [1], the ED (5 mm Hg) stood at 0.113 µmol/kg. Moreover, in series [1], the “Mean Selectivity Ratio MAP ED20/IUP ED5” value stood at 1.12. For the same molecule, the Ki in series [2] (setting [7]) came out at 10 µM; in series [5] (setting [8]) it was 1.59 µM; in series [6], 0.378 µM. Also, the “Mean MAP ED20” value in series [3] was 125.78 nmol/kg.

For the molecule `CS(=O)(=O)Nc1cc(F)cc2c1OCCC2c1c[nH]cn1.O=C(O)/C=C\C(=O)O` (stereo not drawn) [Example 90, N-[6-fluoro-4-(1H-imidazol-4-yl)-3,4-dihydro-2H-chromen-8-yl]methanesulfonamide Maleate], the melting point was in the range of 187 to 190 °C. Also, the Ki in series [2] (setting [7]) stood at 10 µM. The EC50 in series [4] is 0.49 µM. Further, in series [5] (setting [8]), the Ki worked out at 10 µM. This molecule registered a Ki in series [6] of 0.237 µM.

`CCCN(CCC)C(=O)Nc1cccc2c1CCCC2c1c[nH]cn1` (stereo not drawn) [Example 112, N′-[5-(1H-imidazol-4-yl)-5,6,7,8-tetrahydro-1-naphthalenyl]-N,N-dipropylurea]: the inhibition constant Ki in series [2] (setting [7]) amounted to 10 µM; in series [5] (setting [8]), 10 µM; in series [6] it was 1.24 µM. For the same molecule, the EC50 in series [4] is 7.94 µM.

Regarding `COCCN(CCOC)C(=O)Nc1cccc2c1CCCC2c1c[nH]cn1` (stereo not drawn) [Example 116, N′-[5-(1H-imidazol-4-yl)-5,6,7,8-tetrahydro-1-naphthalenyl]-N,N-bis(2-methoxyethyl)urea], the figures for the Ki in series [2] (setting [7]), in series [5] (setting [8]) and in series [6] were 10 µM, 10 µM and 2.98 µM, respectively. In addition, the EC50 in series [4] is 9.33 µM.

Turning to `O=C(Nc1cccc2c1CCCC2c1c[nH]cn1)OCC(Cl)(Cl)Cl` (stereo not drawn) [Example 121, 2,2,2-trichloroethyl 5-(1H-imidazol-4-yl)-5,6,7,8-tetrahydro-1-naphthalenylcarbamate], the Ki in series [2] was 1.85 µM; in series [5] it was 0.963 µM; in series [6], 0.229 µM. Moreover, the EC50 in series [4] is 3.72 µM.

For `CC(C)[C@H]1CC[C@H](C)C[C@@H]1OC(=O)Nc1cccc2c1CCCC2c1c[nH]cn1` (stereo partly drawn) [Example 123, (1S,2R,5S)-2-isopropyl-5-methylcyclohexyl 5-(1H-imidazol-4-yl)-5,6,7,8-tetrahydro-1-naphthalenylcarbamate], the results for the Ki in series [2] (setting [7]), in series [5] (setting [8]) and in series [6] were 1.36 µM, 0.692 µM and 1.28 µM, respectively. For the same molecule, the EC50 in series [4] is 6.17 µM.

`CCS(=O)(=O)Nc1cc(Cl)cc2c1CCCC2c1c[nH]cn1` (stereo not drawn) [Example 132, N-[3-chloro-5-(1H-imidazol-4-yl)-5,6,7,8-tetrahydro-1-naphthalenyl]ethanesulfonamide]: in series [1], the ED (5 mm Hg) turned out to be 0.019 µmol/kg. For the same molecule, in series [1], the “Mean Selectivity Ratio MAP ED20/IUP ED5” value was determined as 2.5. The Ki stood at 10 µM in series [2], 0.367 µM in series [5] and 0.047 µM in series [6]. The “Mean MAP ED20” value in series [3] is 47.7 nmol/kg.
